Patent publication US20210330611A1, “THERAPY FOR NEUROLOGICAL DISEASES/DISORDERS” (priority 2020, published 2021)
Where a name gives a salt, the structure may show the parent alone.

Experiments:
[1] = test system: primary rat microglia; test: Cell toxicity (dead cells, size <150 μm2) in coated fibrin (cFib) assay; conditions: primary microglia HTS, fibrin stimulation; decreased size (<150 μm^2) as marker of toxicity;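 note: share of dead cells sized under 150 µm2 at 10 µM in fibrin-stimulated microglia HTS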
[2] = test system: fibrin- and LPS-induced microglia activation; test: cells; assay type: cell-based, rat
[3] = test system: fibrin-induced microglia activation; test: Image-based assay of fibrin-induced microglia activation (HTS and dose response); assay type: cell-based, rat; conditions: for inhibition at 10 µM / Fibrin % inhibition: primary microglia HTS, fibrin stimulation, increased cell size (>800 μm^2) as marker of activation; for inhibition at 10 µM: read-out: Fibrin % inhibition
[4] = test system: primary rat microglia; test: Cell toxicity (dead cells, size <150 μm2) in LPS assay; conditions: primary microglia HTS, LPS stimulation; decreased size (<150 μm^2) as marker of toxicity
[5] = test system: LPS-induced microglia activation; test: Image-based assay of LPS-induced microglia activation (HTS and dose response); assay type: cell-based, rat; conditions: for inhibition at 10 µM: 48 h, read-out: LPS % inhibition; for inhibition at 10 µM / LPS % inhibition: primary microglia HTS, LPS stimulation, increased cell size (>800 μm^2) as marker of activation
[6] = quadrant by fibrin and LPS inhibition in HTS of 1907 compounds

SMILES	Fibrin % cell toxicity [1]	Quadrant (FIG. 5b) [2, 6]	inhibition at 10 µM ([3]; Rattus norvegicus, Microglia)	LPS % cell toxicity [4]	inhibition at 10 µM ([5]; Rattus norvegicus, Microglia)	Fibrin % inhibition [3]	LPS % inhibition [5]	Quadrant (FIG. 5b) ([2]; Table 2, screen at 10 μM)	Activity ([2]; Table 7, fib = fibrin, LPS, tox = toxicity)	IC50 ([3]; Rattus norvegicus, Microglia, Table 7, read-out: fib_IC50)	IC50 ([5]; Rattus norvegicus, Microglia, Table 7, read-out: LPS_IC50)
CCc1nn(CCCN2CCN(c3cccc(Cl)c3)CC2)c(=O)n1CCOc1ccccc1 [Nefazodone]	0%	Q4	-37%	0%	3%						
Cc1cccc(C)c1NC(=O)CN1CCCC1=O [Nefiracetam]	0%	Q4	-21%	0%	13%						
CN1CCOC(c2ccccc2)c2ccccc2C1 (stereo not drawn) [Nefopam]	0%	Q4	-15%	0%	3%						
COc1nc(N)nc2c1ncn2[C@@H]1O[C@H](CO)[C@@H](O)[C@@H]1O [Nelarabin]	0%	Q4		0%		−10%	0%				
CN(C)C(=O)Oc1cccc([N+](C)(C)C)c1 [Neostigmine]	0%	Q4	-15%	0%	15%						
CCN[C@@H]1C[C@H](N)[C@@H](O[C@H]2OC(CN)=CC[C@H]2N)[C@H](O)[C@H]1O[C@H]1OC[C@](C)(O)[C@H](NC)[C@H]1O.CCN[C@@H]1C[C@H](N)[C@@H](O[C@H]2OC(CN)=CC[C@H]2N)[C@H](O)[C@H]1O[C@H]1OC[C@](C)(O)[C@H](NC)[C@H]1O.O=S(=O)(O)O.O=S(=O)(O)O.O=S(=O)(O)O.O=S(=O)(O)O.O=S(=O)(O)O [Netilmicin Sulfate]	1%	Q4		0%		−6%	12%				
Cc1ccnc2c1NC(=O)c1cccnc1N2C1CC1 [Nevirapine]	0%	Q4	3%	0%	15%						
O=C(CCNNC(=O)c1ccncc1)NCc1ccccc1 [Nialamide]	1%	Q4	-6%	0%	11%						
COC(=O)C1=C(C)NC(C)=C(C(=O)OCCN(C)Cc2ccccc2)C1c1cccc([N+](=O)[O-])c1 (stereo not drawn) [Nicardipine]	0%	Q4	11%	0%	12%						
O=C(Nc1ccc([N+](=O)[O-])cc1Cl)c1cc(Cl)ccc1O [Nicolsamide, Niclosamide]	1%	Q4		1%		−2%	21%				
O=C(c1cccnc1)N1CCOCC1 [Nicopholine]	0%	Q4	26%	0%	21%						
O=C(O)c1cccnc1Nc1cccc(C(F)(F)F)c1 [Niflumic Acid]	1%	Q4	-14%	0%	9%						
O=C(N/N=C/c1ccc([N+](=O)[O-])o1)c1cc([N+](=O)[O-])cc([N+](=O)[O-])c1O [Nifursol]	1%	Q4	47%	0%	20%						
CCN(CC)C(=O)c1cccnc1 [Nikethamide]	0%	Q4	12%	0%	-4%						
Cc1ncc(CNC(=O)N(CCCl)N=O)c(N)n1 [Nimustine]	1%	Q4	-1%	0%	10%						
O=[N+]([O-])c1ccc([As](=O)(O)O)cc1 [Nitarsone]	1%	Q4		0%		−3%	19%				
CC(=O)Oc1ccccc1C(=O)Nc1ncc([N+](=O)[O-])s1 [Nitazoxanide]	1%	Q4	-16%	0%	22%						
CC(=O)Nc1ncc([N+](=O)[O-])s1 [Nithiamide]	1%	Q4	3%	1%	21%						
CCOC(=O)C1=C(C)NC(C)=C(C(=O)OC)C1c1cccc([N+](=O)[O-])c1 (stereo not drawn) [Nitrendipine]	1%	Q4	-12%	0%	18%						
NC(=O)N/N=C/c1ccc([N+](=O)[O-])o1 [Nitrofural]	0%	Q4	-14%	0%	1%						
O=[N+]([O-])OCC(CO[N+](=O)[O-])O[N+](=O)[O-] [Nitroglycerin]	1%	Q4	2%	1%	17%						
NC(=O)c1cc([N+](=O)[O-])cc([N+](=O)[O-])c1 [Nitromide]	0%	Q4		0%		−7%	11%				
O=[N+]([O-])c1ccc(O)c2ncccc12 [Nitroxoline]	1%	Q4	-5%	0%	-6%						
C#C[C@]1(OC(C)=O)CC[C@H]2[C@@H]3CCC4=CC(=O)CC[C@@H]4[C@H]3CC[C@@]21C [Norethindrone Acetate]	1%	Q4	-5%	0%	18%						
COc1ccc2c(c1OC)C(=O)O[C@@H]2[C@H]1c2c(cc3c(c2OC)OCO3)CCN1C [Noscapine Hydrochloride]	1%	Q4	-15%	0%	23%						
CO[C@@H]1[C@@H](OC(N)=O)[C@@H](O)[C@H](Oc2ccc3c(O)c(NC(=O)c4ccc(O)c(CC=C(C)C)c4)c(=O)oc3c2C)OC1(C)C [Novobiocin]	0%	Q4	-17%	0%	8%						
CC(CCc1ccccc1)NC(C)C(O)c1ccc(O)cc1 (stereo not drawn) [Nylidrin hydrochloride, reference compound]	0%	Q4	6%	1%	24%			Q4	fib/LPS	2 nM	7 nM
CCCCC(CC)COC(=O)c1ccccc1O (stereo not drawn) [Octisalate]	0%	Q4	-17%	0%	5%						
